The values below are quoted from earlier work in US20080318986A1, “Ddc Compositions” (priority 2005, published 2008).

The test system of this series is adenoviral strains. The settings on record: literature study; for inhibition of adenoviral strains: Kaneko et al. J. Jpn. Opthalmol. Soc. 107:196-201 (2003).

For `Nc1ccn([C@H]2CC[C@@H](CO)O2)c(=O)n1` [dDC, 2′,3′-Dideoxycytidine], the “inhibition of adenoviral strains” value was “inhibited adenoviral strains”.
With `CCCCCCCCCCCCCCCCCCCCCCOCC(C)(COCCCCCCCCCCCCCCCCCCCCCC)CO[C@]1(C(=O)O)C[C@H](OS(=O)(=O)O)[C@@H](NC(C)=O)[C@H]([C@H](OS(=O)(=O)O)[C@@H](COS(=O)(=O)O)OS(=O)(=O)O)O1` [NMSO3], the “inhibition of adenoviral strains” value is on record as “inhibited adenoviral strains”. Further, under “Kaneko et al. 2003, comparison in words only”, the “EC50 values against adenoviral strains (rank among NMSO3, HPMPC, dDC)” value is reported as “lowest EC50 values”.
In the case of `Nc1ccn(C[C@@H](CO)OCP(=O)(O)O)c(=O)n1` [HPMPC], the “inhibition of adenoviral strains” value was “inhibited adenoviral strains”.
